Measurements from publication PMC6594751, “The mechanism of error induction by the antibiotic viomycin provides insight into the fidelity mechanism of translation” (eLife, 2019).
Where two headings read alike, the source gives them in different places.

How the values were obtained:
tRNA selection = tested on: tRNA selection; set-up: method as in Marrero et al., 1980; conditions: ref Marrero et al., 1980; cited from earlier work
[1] = tested on: peptidyl-tRNA in the ribosomal A site; conditions: ref Holm et al., 2016; Peske et al., 2004; cited from earlier work
[2] = tested on: TC^H84A on 70S ribosomes displaying cognate UUC or near-cognate CUC codon; assay: EF-Tu^H84A chase experiments (ternary complex dissociation from the A site); type: biochemical, E. coli; conditions: 37°C
Excerpt: To address whether viomycin also stabilizes TCs in the A site during initial codon selection, we estimated the rate of dissociation of both cognate and near-cognate tRNAs in TC (TC ^H84A) with a GTPase-deficient mutant of EF-Tu (EF-Tu^H84A). In this EF-Tu mutant, an essential histidine in the G-domain has been replaced by alanine ([Daviter et al., 2003]), but formation of TC ^H84A is unhindered and the mutant TC carries out all partial reactions during initial codon selection, excluding GTP hydrolysis ([Daviter et al., 2003]; [Gromadski and Rodnina, 2004]). Initiated 70S ribosomes with f[^3H]Met-tRNA^fMet in the P site and a cognate (UUC) or near-cognate (CUC) codon in the A site were equilibrated with TC^H84A containing Phe-tRNAGAAPhe and GTP in the presence of varying concentrations of viomycin. TC^H84As were chased from the A site by addition of GTPase proficient TC, containing WT EF-Tu (EF-Tu^WT) and either Phe-tRNAGAAPhe or Leu-tRNAGAGLeu2 , whichever was cognate for the codon in the A site. The dissociation rate for TC^H84A s from the A site, defined as the inverse of the average dissociation time, was then estimated from the rate of f[^3H]Met-Phe or f[^3H]Met-Leu formation (supplementary methods).
(§1) All experiments were performed at 37°C in HEPES-polymix buffer (95 mM KCl, 5 mM NH4Cl, 0.5 mM CaCl2, 8 mM putrescine, 1 mM spermidine, 5 mM Mg(OAc)2, 1 mM dithioerythritol and 5 mM HEPES pH 7.5). All reaction mixes contained 10 mM phosphoenolpyruvate (PEP), 1 µg/ml pyruvate kinase (PK) and 0.1 µg/ml myokinase (MK). His-tagged initiation factors IF1, IF2 and IF3, elongation factor Ts, and phenylalanine and leucine aminoacyl tRNA-synthetases were purified using nickel-affinity chromatography (HisTrap GE Healthcare). Wild-type elongation factor Tu was prepared as in [Ehrenberg et al. (1990)]. All protein concentrations were determined using the Bradford assay. Ribosomes (E. coli MRE600) and f[^3H]Met-tRNA^fMet were prepared according to [Antoun et al. (2004)]; ribosome concentration was determined spectrophotometrically. XR7 mRNAs with coding sequences AUG-UUC, AUG-CUC, AUG-UAC and AUG-UUA were prepared as in [Borg and Ehrenberg (2015)], see theGV Appendix I for full mRNA sequences. tRNA^Phe was prepared as in [Holm et al. (2016)]. [^3H]Met and [^3H]GTP were from Perkin-Elmer, viomycin was from USP, all other chemicals were from either Merck or Sigma-Aldrich.
The wild type tufA gene from E. coli Mg1655 was cloned in the pET21b vector with a C-terminal hexahistidine tag. Using this construct, the Histidine at position 84 was changed to Alanine by following the standard protocol from the QIAGEN site directed mutagenesis kit. Successful mutation was confirmed by DNA sequencing. […]

ribosome = conditions: ref Holm et al., 2016; cited from earlier work
Excerpt: From these structures it seems likely that association of viomycin to the ribosome requires bases A1492 and A1493 in their flipped-out conformation and that the presence of viomycin on the ribosome will effectively block the monitoring bases from re ...

[3] = tested on: 70S ribosomes displaying cognate (UUC) or near-cognate (CUC) codon in the A site; assay: GTP hydrolysis by EF-Tu in ternary complex (initial codon selection), quench-flow; type: biochemical, E. coli
Excerpt: (§2) To study the impact of viomycin on translational accuracy, we designed experiments to measure its effect on the kinetic efficiency ( kcat/KM ) of GTP hydrolysis by EF-Tu and peptide bond formation for both cognate and near-cognate codon-anticodon interactions. A reaction mixture containing varying concentrations of viomycin and Phe-tRNAGAAPhe in TC with EF-Tu·GTP was rapidly mixed in a quench-flow instrument with initiated 70S ribosomes displaying either cognate (UUC) or near-cognate (CUC) codons in the A site. For studying GTP hydrolysis, the TCs contained [^3H]GTP and the 70S ribosomes had non-radioactive fMet-tRNA^fMet in the P site, while for studying peptide bond formation the TCs contained non-radioactive GTP and the 70S ribosomes had f[^3H]Met-tRNA^fMet bound in the P site. The reactions were stopped at different times by addition of formic acid and the relative amounts of the reaction products were analyzed by ion-exchange chromatography ([^3H]GDP) or RP-HPLC (f[^3H]Met-Phe) with on-line radiation detection.
as §1
Two mixtures were prepared. The ribosome mixture contained 70S ribosomes (1.0–2.0 µM), IF1, IF2 and IF3 (2 µM each), fMet-tRNA^fMet(1.5–3.0 µM), mRNA (3 µM), GTP (1 mM) and ATP (1 mM). The TC mixture contained EF-Tu (0.3–0.6 µM), phenylalanine (200 µM), PheRS (0.5 µM), tRNA^Phe (2 µM), viomycin (0–2000 µM), [^3H]GTP (0.3–0.6 µM) and ATP (2 mM). After 15 min incubation at 37°C, equal volumes of the two mixes were rapidly mixed and the reaction quenched at different time points with formic acid (17% final concentration) using a quench-flow instrument (RQF-3 KinTek corp.). After quenching, the samples were centrifuged at 20,800 g. The supernatant, containing the [^3H]GTP and [^3H]GDP was analyzed by anion exchange chromatography with on-line scintillation counting (β-RAM model 4 IN/US systems). A Mono-Q GL column (GE Healthcare) was used and the mobile phase was a multistep gradient of 0–2 M NaCl in 20 mM Tris (pH 7.5).
Reaction rates were estimated by fitting of single exponential functions to the experimental time courses except for the GTP hydrolysis reactions without viomycin on near-cognate codons which were analyzed as in [Johansson et al. (2012)]. kcat/KM values were estimated by fitting of the Michaelis-Menten equation to plots of reaction rates versus concentration. […]

[4] = tested on: 70S ribosomes displaying cognate UUC or near-cognate codons CUC, AUC, UAC or UUA in the A site; assay: f[^3H]Met-Phe dipeptide formation, quench-flow; type: biochemical, E. coli
Excerpt: as §2
The model presented above predicts that viomycin sensitivity ( KInc ) for any codon·anticodon pair depends on the accuracy of initial codon selection as defined by the product of the near-cognate back reaction rate constants q3nc and q4nc (Equations 4 and 5) in the absence as well as presence of viomycin. […] To test this prediction, we measured how the kcat/KM of dipeptide formation varied with viomycin concentration for tRNAGAAPhe reading three additional near-cognate codons (Figure 4A); AUC, UAC or UUA (the underlined base differs from the cognate codon UUC). We quantified the viomycin sensitivity of each codon by estimating its KI value by fitting of Equation 4 to plots of kcat/KM versus viomycin concentration (Figure 4B). We also estimated the accuracies of initial selection by measuring kcat/KM for GTP hydrolysis with the three codons in the absence of viomycin. Both sets of experiments were carried out exactly as described above.
as §1
Two mixtures were prepared. The ribosome mixture contained 70S ribosomes (0.5 µM), IF1, IF2 and IF3 (1 µM each), f[^3H]Met-tRNA^fMet (1 µM), mRNA (2 µM), GTP (1 mM) and ATP (1 mM). The TC mixture contained EF-Tu (1–10 µM), EF-Ts (1 µM), phenylalanine (200 µM), PheRS (0.5 µM), tRNA^Phe (12 µM), viomycin (0–2000 µM), GTP (1 mM) and ATP (1 mM). After 15 min incubation at 37°C, equal volumes of the two mixes were rapidly mixed and the reaction quenched at different time points with formic acid (17% final concentration) using a quench-flow instrument (RQF-3 KinTek corp.). After quenching, the samples were centrifuged at 20,800 g and the supernatant discarded. The pellet was dissolved in 165 µl 0.5 M KOH to cleave the peptides from the tRNA. […]

mRNA translocation = conditions: ref Holm et al., 2016; Modolell and Vázquez, 1977; cited from earlier work
[5] = CUC vs UUC, 1 mM viomycin vs absence of viomycin

Substance: viomycin
- effect on fidelity of tRNA selection (tRNA selection): impairs the fidelity of tRNA selection
- stabilization of peptidyl-tRNA in the ribosomal A site [1]: strongly stabilize peptidyl-tRNA in the ribosomal A site
- rate of TC^H84A dissociation, cognate, 1 µM viomycin ([2]; cognate UUC codon, 1 µM viomycin (1.21 ± 0.088 in the absence of viomycin), pH 7.5): 0.616 ± 0.044 s⁻¹
- rate of TC^H84A dissociation, cognate, 10 µM viomycin ([2]; cognate UUC codon, 10 µM viomycin (1.21 ± 0.088 in the absence of viomycin), pH 7.5): 0.198 ± 0.0275 s⁻¹
- apparent near-cognate TC^H84A dissociation rate, 200 µM viomycin ([2]; near-cognate CUC codon, 200 µM viomycin, pH 7.5): 0.209 ± 0.066 s⁻¹
- Ki ([2]; tRNA^Phe(GAA) reading cognate codon UUC, linear fit of Equation 6 to dissociation mean times (Figure 2B), read-out: KI^c (viomycin concentration at which rate of viomycin rebinding to TC-bound ribosome equals rate of TC dissociation unhindered by rebinding)): 0.0094 ± 0.0033 mM
- effect of A-site-bound tRNA on affinity of viomycin for the ribosome (ribosome): A-site-bound tRNA greatly increases the affinity of viomycin for the ribosome
- reduction in the accuracy of initial codon selection [3, 5]: 170 fold
- kcat/KM of cognate GTP hydrolysis (average over 0 to 1 mM viomycin) ([3]; cognate UUC codon, Phe-tRNA^Phe TC, viomycin 0 to 1 mM, HEPES-polymix pH 7.5, 37°C, error SEM): 4.1e+07 ± 600000 M⁻¹ s⁻¹
- effect of viomycin on kcat/KM of cognate GTP hydrolysis ([3]; cognate UUC codon, viomycin 0 to 1 mM, 37°C): did not change with increasing viomycin concentration
- kcat/KM of near-cognate GTP hydrolysis ([3]; near-cognate CUC codon, 1 mM viomycin (0.053 ± 0.005 in the absence of viomycin), HEPES-polymix pH 7.5, 37°C, error SEM): 9.2e+06 ± 700000 M⁻¹ s⁻¹
- Ki ([3]; tRNA^Phe(GAA) reading near-cognate codon CUC, fit of Equation 4 (Figure 1B), 37°C, read-out: KI (viomycin concentration at which accuracy has decreased to two), from GTP hydrolysis): 3.1 ± 0.2 mM
- total accuracy ([4]; CUC vs UUC, 1 mM viomycin (83,500 ± 8000 without viomycin)): 4.0 ± 0.3
- reduction in total accuracy [4, 5]: 21,000 fold
- correlation of accuracy of initial selection with viomycin KI ([4]; codons CUC, AUC, UAC, UUA (Figure 4C)): clear correlation between the two
- effect of viomycin on kcat/KM of cognate dipeptide formation ([4]; cognate UUC codon, 37°C): did not change with the addition of viomycin
- kcat/KM of cognate dipeptide formation (average over viomycin concentrations) ([4]; cognate UUC codon, HEPES-polymix pH 7.5, 37°C, error SEM): 3.83e+07 ± 700000 M⁻¹ s⁻¹
- kcat/KM of near-cognate dipeptide formation ([4]; near-cognate CUC codon, 1 mM viomycin (0.0005 ± 0.00004 in the absence of viomycin), HEPES-polymix pH 7.5, 37°C, error SEM): 9.4e+06 ± 800000 M⁻¹ s⁻¹
- kcat/KM of near-cognate GTP hydrolysis compared with dipeptide formation ([4]; near-cognate CUC codon, all tested viomycin concentrations): virtually identical
- viomycin concentration required to double the rate at which tRNA^Phe reads the codon CUC ([4]; near-cognate CUC, from in vitro experiments): 80 ± 8 nM
- proofreading selection by viomycin-bound ribosomes ([4]; near-cognate, proofreading accuracy 115 ± 15 in the absence of viomycin): incapable of performing proofreading selection
- Ki ([4]; tRNA^Phe(GAA) reading near-cognate codon AUC (first position mismatch), fit of Equation 4, accuracy of initial selection 2400 ± 120 without viomycin, read-out: KI from dipeptide formation, AUC): 7 ± 0.3 mM
- Ki ([4]; tRNA^Phe(GAA) reading near-cognate codon CUC, fit of Equation 4 (Figure 1D), 37°C, read-out: KI (viomycin concentration at which accuracy has decreased to two), from dipeptide formation, CUC): 3.3 ± 0.1 mM
- Ki ([4]; tRNA^Phe(GAA) reading near-cognate codon UAC (second position mismatch), fit of Equation 4, accuracy of initial selection 6400 ± 670 without viomycin, read-out: KI from dipeptide formation, UAC): 29 ± 2.7 mM
- Ki ([4]; tRNA^Phe(GAA) reading near-cognate codon UUA (third position mismatch), fit of Equation 4, accuracy of initial selection 580 ± 47 without viomycin, read-out: KI from dipeptide formation, UUA): 3.25 ± 0.2 mM
- effect on rate of mRNA translocation (mRNA translocation): reduces the rate of mRNA translocation
